The subject of the test is Adult mongrel dogs, left anterior descending coronary artery (LAD) occlusion/reperfusion. The test is described as follows: Infarct size in the dog, 60 min LAD occlusion and 3 h reperfusion. The format is in vivo. Particulars: AG 30 mg/kg alone, 60 min before occlusion; mean ± SEM. On the procedure:
Adult mongrel dogs of either sex, weighing 19.0-30.0 kg were fasted overnight, anaesthetized with intravenous sodium barbital (200 mg/kg) and sodium pentobarbital (15 mg/kg), and ventilated with room air supplemented with 100% oxygen at an end expiratory pressure of 5-7 cm H2O to prevent atelectasis. Arterial blood pH PO2 and PCO2 were monitored at selected intervals by an automatic blood gas system and maintained within a normal physiological range (pH 7.35-7.45, PO2 10.6-16.0 kPa, PCO2 3,3-4.7 kPa) by adjusting the respiratory rate and oxygen flow and by an infusion of 1.5% sodium bicarbonate when necessary. Body temperature was maintained at 38±1° C. by using a heating pad.
A double pressure-transducer-tipped catheter was inserted into the aorta and left ventricle via the left carotid artery for measurements of aortic and left ventricular pressure. Left ventricular dP/dt was determined by electronic differentiation of the left ventricular pressure pulse.
A left thoracotomy was performed at the fifth intercostal space. The lung was retracted, the pericardium incised, and the heart suspended in a cradle. A 10-15 mm segment of the left anterior descending coronary artery (LAD) was dissected from surrounding tissue. […]
Regional myocardial blood flow was measured by the radioactive microsphere technique. […]

Regarding `N=C(N)NN` [AG, aminoguanidine, reference compound], the “IS/AAR(%) (infarct size / area at risk)” value is reported as 22.4 ± 2.8%.

Values taken from US6399590B2, “Phosphoglycolipid and methods for its use” (Corixa Corporation, priority 1998, dated 2002).
